Measured values reported in US8211909B2, “Treatment of antibiotic-resistant bacteria infection” (TaiGen Biotechnology Co., Ltd., priority 2008, dated 2012).
In brackets after ≈: the same amount, converted by molar mass. Like-named read-outs stand apart in the source and are kept apart here. One block for each compound: values may come before it.

What was measured:
[1] = system: Methicillin-resistant Staphylococcus aureus (MRSA) isolates; experiment: MIC by broth microdilution (CLSI) against CAN-ICU MRSA isolates; assay type: cell-based; conditions: Staphylococcus aureus
From the text: MRSA isolates (n=193) were obtained as part of the Canadian National Intensive Care Unit (CAN-ICU) Study. 19 medical centers from all regions of Canada with active ICUs participated in the CAN-ICU study included. They were requested to only obtain “clinically significant” specimens from patients with a presumed infectious disease. Surveillance swabs, eye, ear, nose and throat swabs were excluded. Anaerobic organisms and fungal organisms were also excluded.
From September 2005-June 2006 (inclusive), each center collected a maximum of 300 consecutive pathogens isolated from blood, urine, tissue/wound, and respiratory specimens (one pathogen per cultured site per patient) of ICU patients. These isolates were shipped to the reference laboratory (Health Sciences Centre, Winnipeg, Canada) on Amies charcoal swabs, subcultured in appropriate media, and stocked in skim milk at −80° C.
All isolates underwent mecA PCR, as well as molecular characterization (including PVL analysis and fingerprinting), as previously described, to assess whether they were community-associated or healthcare-associated (Christianson et al., J Clin Microbiol. 2007, 45 (6): 1904-11; Mulvey et al., J Clin. Microbiol. 2001, 39(10): 3481-5; Mulvey et al., Emerg Infect Dis. 2005,11(6): 844-50; Oliveira et al., Antimicrob Agents Chemother. 2002, 46(7): 2155-61). The isolates were also subtyped using pulsed-field gel electrophoresis (PFGE) following the Canadian standardized protocol as previously described (Mulvey et al., J Clin Microbiol. 2001, 39(10): 3481-5). Their PFGE fingerprints thus obtained were analyzed with BioNumerics v3.5 (Applied Maths St. Marten-Latem, Belgium) using a position tolerance of 1.0 and an optimization of 1.0. Strain relatedness was determined as previously described (Tenover et al., 1995). The fingerprints of the isolates were compared to the national MRSA fingerprint database and were grouped into one of 10 Canadian epidemic MRSA (CMRSA-1, CMRSA-2, etc) as previously described (Mulvey et al., Emerg Infect Dis. 2005,11(6):844-50).
Compound 1 and other antibiotics were tested for their inhibitory activity against the MRSA isolates using the broth microdilution guidelines as stipulated by the Clinical and Laboratory Standards Institute.

[2] = system: Staphylococcus aureus strains (MRSA, hVISA, VISA, VRSA, quinolone-resistant MRSA); experiment: MIC by agar dilution against Staphylococcal strains (MRSA, hVISA, VISA, VRSA, quinolone-resistant MRSA); assay type: cell-based
Description: Compound 1 was tested for its inhibitory effect against 26 Methicillin-resistant Staphylococcus aureus (MRSA) strains, 2 hetero-Vancomycin intermediate Staphylococcus aureus (hVISA) strains, 24 Vancomycin-intermediate Staphylococcus aureus (VISA) strains, 5 Vancomycin-resistant Staphylococcus aureus (VRSA) strains, and 31 quinolone-resistant Vancomycin-susceptibale MRSA strains with defined mutations in QRDR. These mutations were determined by sequencing analysis of the QRDR (gyrA, gyrB, grlA, and grlB). Efflux testing was performed by the reserpine method (Brenwald, et al., Antimicrob. Agents Chemother. 1998, 42: 2032-2035).

H. pylori isolates = experiment: MIC by agar dilution against 200 H. pylori isolates (Taiwan); assay type: cell-based, Helicobacter pylori; conditions: for share of isolates resistant: 200 H. pylori isolates, resistance: amoxicillin MICs≧0.5, clarithromycin ≧1, metronidazole ≧8, ciprofloxacin ≧1, levofloxacin ≧1 μg/mL
Description: MICs were determined using the agar dilution methods recommended by the Clinical and Laboratory Standards Institute (CLSI-M100-S18).

[3] = Staphylococcus aureus, MRSA (26)
[4] = Staphylococcus aureus, Quinolone-resistant MRSA (31)
[5] = Staphylococcus aureus, hVISA(2) + VISA (24) + VRSA (5)
[6] = Staphylococcus aureus, read-out: MIC Range, MRSA (26)
[7] = Staphylococcus aureus, read-out: MIC Range, Quinolone-resistant MRSA (31)
[8] = Staphylococcus aureus, read-out: MIC Range, hVISA(2) + VISA (24) + VRSA (5)
[9] = Helicobacter pylori, 200 isolates of H. pylori
[10] = hVISA(2) + VISA (24) + VRSA (5)

MIC50 ([1]; MRSA (n = 193), read-out: MIC50): 16 µg/mL (≈ 41.7 µM)
MIC90 ([1]; MRSA (n = 193), read-out: MIC90): > 32 µg/mL
MIC ([1]; MRSA (n = 193), read-out: MIC Range Max): > 32 µg/mL
MIC ([1]; MRSA (n = 193), read-out: MIC Range Min): 0.25 µg/mL (≈ 0.652 µM)
Compound: C[C@@H](O)[C@H]1C(=O)N2C(C(=O)O)=C(S[C@@H]3CN[C@H](C(=O)N(C)C)C3)[C@H](C)[C@H]12 [Meropenem]

Compound: COc1c(N2C[C@@H]3CCCN[C@@H]3C2)c(F)cc2c(=O)c(C(=O)O)cn(C3CC3)c12 [Moxifloxacin]
MIC50 [2, 3]: 0.06 µg/mL (≈ 0.149 µM)
MIC90 [2, 3]: 0.06 µg/mL (≈ 0.149 µM)
MIC50 [2, 4]: 4 µg/mL (≈ 9.96 µM)
MIC90 [2, 4]: 8 µg/mL (≈ 19.9 µM)
MIC50 [2, 5]: 4 µg/mL
MIC90 [2, 5]: 8 µg/mL
MIC [2, 6]: 0.03 to 0.25 µg/mL (≈ 0.0747 to 0.623 µM)
MIC [2, 7]: 1 to 8 µg/mL (≈ 2.49 to 19.9 µM)
MIC [2, 8]: 0.06 to 8 µg/mL
MIC50 (H. pylori isolates; [9]): 250 µg/mL (≈ 623 µM)
MIC90 (H. pylori isolates; [9]): 500 µg/mL (≈ 1250 µM)

Compound: CN(C)c1cc(NC(=O)CNC(C)(C)C)c(O)c2c1C[C@H]1C[C@H]3[C@H](N(C)C)C(O)=C(C(N)=O)C(=O)[C@@]3(O)C(O)=C1C2=O [Tigecycline]
MIC50 ([1]; MRSA): 0.25 µg/mL (≈ 0.427 µM)
MIC90 ([1]; MRSA): 0.5 µg/mL (≈ 0.854 µM)
MIC50 ([1]; MRSA / USA100): 0.25 µg/mL (≈ 0.427 µM)
MIC90 ([1]; MRSA / USA100): 0.25 µg/mL (≈ 0.427 µM)
MIC50 ([1]; MRSA / USA200): 0.5 µg/mL (≈ 0.854 µM)
MIC90 ([1]; MRSA / USA200): 0.5 µg/mL (≈ 0.854 µM)
MIC50 ([1]; MRSA / USA300): 0.25 µg/mL (≈ 0.427 µM)
MIC90 ([1]; MRSA / USA300): 0.5 µg/mL (≈ 0.854 µM)
MIC50 ([1]; MRSA / USA400): 0.25 µg/mL (≈ 0.427 µM)
MIC90 ([1]; MRSA / USA400): 0.25 µg/mL (≈ 0.427 µM)
MIC50 ([1]; MRSA / USA600): 0.25 µg/mL (≈ 0.427 µM)
MIC90 ([1]; MRSA / USA600): 0.5 µg/mL (≈ 0.854 µM)
MIC ([1]; MRSA, read-out: MIC Range Max): 0.5 µg/mL (≈ 0.854 µM)
MIC ([1]; MRSA, read-out: MIC Range Min): 0.12 µg/mL (≈ 0.205 µM)
MIC50 [2, 3]: 0.25 µg/mL (≈ 0.427 µM)
MIC90 [2, 3]: 0.5 µg/mL (≈ 0.854 µM)
MIC50 [2, 4]: 0.12 µg/mL (≈ 0.205 µM)
MIC90 [2, 4]: 0.25 µg/mL (≈ 0.427 µM)
MIC50 [2, 5]: 0.25 µg/mL
MIC90 [2, 5]: 0.5 µg/mL
MIC [2, 6]: 0.12 to 0.5 µg/mL (≈ 0.205 to 0.854 µM)
MIC [2, 7]: 0.12 to 0.5 µg/mL (≈ 0.205 to 0.854 µM)
MIC [2, 8]: 0.06 to 0.5 µg/mL

Compound: CN[C@H](CC(C)C)C(=O)N[C@H]1C(=O)N[C@@H](CC(N)=O)C(=O)N[C@H]2C(=O)N[C@H]3C(=O)N[C@H](C(=O)N[C@H](C(=O)O)c4cc(O)cc(O)c4-c4cc3ccc4O)[C@H](O)c3ccc(c(Cl)c3)Oc3cc2cc(c3O[C@@H]2O[C@H](CO)[C@@H](O)[C@H](O)[C@H]2O[C@H]2C[C@](C)(N)[C@H](O)[C@H](C)O2)Oc2ccc(cc2Cl)[C@H]1O [Vancomycin]
MIC50 ([1]; MRSA): 1 µg/mL (≈ 0.69 µM)
MIC90 ([1]; MRSA): 1 µg/mL (≈ 0.69 µM)
MIC50 ([1]; MRSA / USA100): 1 µg/mL (≈ 0.69 µM)
MIC90 ([1]; MRSA / USA100): 1 µg/mL (≈ 0.69 µM)
MIC50 ([1]; MRSA / USA200): 0.5 µg/mL (≈ 0.345 µM)
MIC90 ([1]; MRSA / USA200): 0.5 µg/mL (≈ 0.345 µM)
MIC50 ([1]; MRSA / USA300): 0.5 µg/mL (≈ 0.345 µM)
MIC90 ([1]; MRSA / USA300): 0.5 µg/mL (≈ 0.345 µM)
MIC50 ([1]; MRSA / USA400): 1 µg/mL (≈ 0.69 µM)
MIC90 ([1]; MRSA / USA400): 1 µg/mL (≈ 0.69 µM)
MIC50 ([1]; MRSA / USA600): 1 µg/mL (≈ 0.69 µM)
MIC90 ([1]; MRSA / USA600): 1 µg/mL (≈ 0.69 µM)
MIC ([1]; MRSA, read-out: MIC Range Max): 1 µg/mL (≈ 0.69 µM)
MIC ([1]; MRSA, read-out: MIC Range Min): 0.5 µg/mL (≈ 0.345 µM)
MIC50 [2, 3]: 1 µg/mL (≈ 0.69 µM)
MIC90 [2, 3]: 1 µg/mL (≈ 0.69 µM)
MIC50 [2, 4]: 1 µg/mL (≈ 0.69 µM)
MIC90 [2, 4]: 1 µg/mL (≈ 0.69 µM)
MIC50 [2, 5]: 4 µg/mL
MIC90 [2, 5]: 32 µg/mL
MIC [2, 6]: 0.5 to 1 µg/mL (≈ 0.345 to 0.69 µM)
MIC [2, 7]: 0.5 to 2 µg/mL (≈ 0.345 to 1.38 µM)

Compound: CC1(C)S[C@@H]2[C@H](NC(=O)[C@H](N)c3ccc(O)cc3)C(=O)N2[C@H]1C(=O)O [amoxicillin]
share of isolates resistant (H. pylori isolates): 2%

Compound: Cc1ncc([N+](=O)[O-])n1CCO [metronidazole]
share of isolates resistant (H. pylori isolates): 29%

Compound: Teicoplanin
MIC50 ([2]; MRSA (26)): 0.5 µg/mL
MIC90 ([2]; MRSA (26)): 1 µg/mL
MIC Range ([2]; MRSA (26)): 0.5 to 1 µg/mL
MIC50 ([2]; Quinolone-resistant MRSA (31)): 0.5 µg/mL
MIC90 ([2]; Quinolone-resistant MRSA (31)): 1 µg/mL
MIC Range ([2]; Quinolone-resistant MRSA (31)): 0.25 to 2 µg/mL
MIC50 [2, 10]: 8 µg/mL
MIC90 [2, 10]: 16 µg/mL
MIC Range [2, 10]: 1 to 32 µg/mL
